Source: US9889184B2 (priority 2008, dated 2018)
Like-named read-outs stand apart in the source and are kept apart here.

How the values were obtained:
[1] = tested on: Fusarium oxysporum f. sp. vasinfectum (Fov) hyphae; assay: Permeabilisation of Fov hyphae by defensins, SYTOX green (Example 10); type: cell-based; details: within 60 mins; followed over 2 h
Experimental: Fov hyphae were grown in half-strength PDB (10 mL in a 50 mL tube) from a starting concentration of 5×10^4 spores/mL for 18 h at 25° C. with constant shaking. Samples (1 mL) were then removed and NaD1 (final concentration 2 μM), NaD1R&A (final concentration 2 μM) or an equivalent volume of water was added before incubation for 2 h at RT with gentle agitation. SYTOX® green (Invitrogen-Molecular Probes, Eugene, Oreg.) was added to a final concentration of 0.5 μM and the hyphae were allowed to stand for 10 min. Hyphae (20 μL) were then transferred to microscope slides (SuperFrost (Registered) Plus, Menzel-Glaser) and covered with glass coverslips for visualization of SYTOX® green uptake using an Olympus BX51 fluorescence microscope. SYTOX® green fluorescence was detected using an MWIB filter (excitation wavelength 460-490 nm). Images were captured using a SPOT RT 3CCD digital camera (Diagnostic Instruments) and processed using Adobe Photoshop. SYTOX® green uptake was quantitated by measuring fluorescence of hyphae in microtitre trays using a fluorimeter (SpectraMax M2; Molecular Devices) with excitation and emission wavelengths of 488 nm and 538 nm, respectively.
The ability of defensins to permeabilise Fusarium oxysporum f. sp. vasinfectum (Fov) hyphae was assessed using a SYTOX green assay as described in the detailed description (NaD1 and membrane permeabilisation).

Leptosphaeria maculans = assay: Growth inhibition by NaD1 (microtitre OD595); type: cell-based
Source text: (§1) Antifungal activity against Fusarium oxysporum f. sp. vasinfectum (Fov, Australian isolate VCG01111 isolated from cotton; from Wayne O'Neill, Farming Systems Institute, DPI, Queensland, Australia), Thielaviopsis basicola (gift from David Nehl, NSW DPI, Narrabri, Australia), Verticillium dahliae (from Helen McFadden, CSIRO Plant Industry, Black Mountain, Australia), Leptosphaeria maculans (from Barbara Howlett, University of Melbourne, Victoria, Australia) and Aspergillus nidulans (from Michael Hynes, University of Melbourne) was assessed essentially as described in Broekaert et al, 1990. Spores were isolated from sporulating cultures growing in either half-strength potato dextrose broth (PDB) (Fov and T. basicola), Czapeck-Dox Broth (V. dahliae) (Difco Laboratories) or 10% (v/v) clarified V8 medium (L. maculans and A. nidulans) by filtration through sterile muslin. Spore concentrations were determined using a hemocytometer and adjusted to 5×10^4 spores/mL in the appropriate growth medium. Spore suspensions (80 μL) were added to the wells of sterile 96-well flat-bottomed microtitre plates along with 20 μL of filter-sterilized (0.22 μm syringe filter; Millipore) NaD1, or water to give final protein concentrations of 0-10 μM. The plates were shaken briefly and placed in the dark at 25° C. without shaking until the optical density at 595 nm of the water control reached approximately 0.2 (24-72 h depending on growth rate). Hyphal growth was estimated by measuring the optical density at 595 nm using a microtitre plate reader (SpectraMax Pro M2; Molecular Devices). Each test was performed in quadruplicate.

Thielaviopsis basicola = assay: Growth inhibition by NaD1 (microtitre OD595); type: cell-based
Source text: as §1

Verticillium dahliae = assay: Growth inhibition by NaD1 (microtitre OD595); type: cell-based
Source text: as §1

Aspergillus nidulans = assay: Growth inhibition by NaD1 (microtitre OD595); type: cell-based
Source text: as §1

Fov hyphae = assay: Uptake of NaD1 into hyphae (immunogold EM, bimane fluorescence, immunoblot); type: cell-based, Fusarium oxysporum f. sp. vasinfectum
Experimental: Fov hyphae were grown as described above prior to the addition of NaD1 (10 μM final concentration) to 1 mL of the culture. Samples (100 μL) were collected after 0, 5, 10, 30, 60, 90 and 120 min. Hyphae were collected by centrifugation (10 min, 10,000×g) and the supernatant was stored at −20° C. for analysis. Hyphae were washed (2×10 min) with KCl (0.6 M) to remove any ionically bound protein before they were resuspended in 50 mM CAPS buffer (pH 10.0) containing 10 mM DTT for 20 min. Hyphae were collected by centrifugation and the supernatant, containing cell wall proteins, was collected for analysis. The pellet (containing cells) was resuspended in water and the cells were lysed using glass beads (Sigma, 60 mg) and vortexing (3×10 min). Cellular debris was removed by centrifugation (16,000×g, 10 min) and the supernatant collected for analysis. All samples were then analyzed by SDS-PAGE and immunoblotting.
Fov hyphae were grown for 18 h in half-strength PDB (5 mL) with vigorous shaking at 25° C. from a starting spore suspension of 5×10^4/mL. Hyphae were then treated with 2 μM NaD1 or an equivalent volume of water for 2 h at RT with gentle agitation, and were washed twice in 0.6 M KCl and three times in PBS before fixation in 4% (w/v) paraformaldehyde in PBS for 1 h at 4° C. Hyphae were again washed three times in PBS before dehydration in a standard ethanol series (15 min each, 50%, 70% and 90% ethanol, 3×15 min 100% ethanol). Hyphae were then infiltrated with LR White resin (ProSciTech) for 1 h at RT, followed by 18 h at 4° C., 1 h at RT and 24 h at 60° C. Fresh LR White resin was used at each step. Ultrathin sections were cut and placed on Formvar coated gold grids.
Grids were blocked with PBS containing 8% (w/v) BSA and 1% (v/v) Triton X-100 for 1 h and labeled with α-NaD1 antibodies (2 μg/mL in blocking buffer) for 1 h. Grids were washed in blocking buffer (3×10 min) and labeled with 15 nm gold particle labeled goat α-rabbit IgG antibodies (ProSciTech diluted 1 in 20 for 1 h. Grids were washed again in blocking solution (3×10 min) followed by water (15 min) before being air-dried. A JEOL JEM2010HC x e80 KV transmission electron microscope was used to examine labeled grids. Pictures were taken on Kodak EM film (ProSciTech) and developed in a dark room before scanning on a Hewlett Packard Scanjet 5P scanner.
Hyphae grown for 18 h as described were treated with NaD1-bimane (2 μM) for between 10 min and 6 h. Hyphae were then visualized by fluorescence microscopy using an MWU filter (excitation wavelength of 330-385 nm).

Fusarium graminearum = type: cell-based

Q: Which results are given for “NaD1: plant defensin isolated from floral tissue of Nicotiana alata (SEQ ID NO:12) (RECKTESNTFPGICITKPPCRKACISEKFTDGHCSKILRRCLCTKPC; Nicotiana alata (NaD1))”?
A: permeabilisation of Fov hyphae (SYTOX green) [1]: efficiently permeabilise; growth retarded (Leptosphaeria maculans; 1 μM NaD1, L. maculans): 50%; growth inhibited (Leptosphaeria maculans; 5 μM NaD1, L. maculans): more than 80%; IC50 (Leptosphaeria maculans; Leptosphaeria maculans): 800 nM; growth inhibited (Thielaviopsis basicola; 1 μM NaD1, T. basicola): approximately 65%; growth inhibited (Thielaviopsis basicola; 5 μM NaD1, T. basicola): more than 80%; IC50 (Thielaviopsis basicola; Thielaviopsis basicola): 800 nM; growth inhibited (Verticillium dahliae; 1 μM NaD1, V. dahliae): approximately 65%; growth inhibited (Verticillium dahliae; 5 μM NaD1, V. dahliae): more than 80%; IC50 (Verticillium dahliae; Verticillium dahliae): 750 nM; growth inhibited (Aspergillus nidulans; 1 μM NaD1, A. nidulans): approximately 65%; growth inhibited (Aspergillus nidulans; 5 μM NaD1, A. nidulans): more than 80%; IC50 (Aspergillus nidulans; Aspergillus nidulans): 800 nM; NaD1 in cytoplasm of treated hyphae, immunogold α-NaD1 labeling (Fov hyphae; NaD1 10 μM, 2 h, many, but not all, hyphae): heavily labeled; time after which NaD1 uptake occurred (Fov hyphae; SDS-PAGE and immunoblotting of cytoplasmic contents): 20 min; time until which NaD1 in the Fov cytoplasm increased (Fov hyphae; immunoblotting, decreased slightly afterwards): 60 min; toxicity with Fusarium graminearum (Fusarium graminearum; 0.5 μM NaD1 combined with 0.5 μM/mL NaCys2, FIG. 3B): significantly enhanced; toxicity with Fusarium graminearum (Fusarium graminearum; 0.5 μM NaD1 in the absence of NaCys2, FIG. 3B): very low
